Measurements: patent US6933304B2, “Heteroarylalkanoic acids as integrin receptor antagonists” (Pharmacia Corporation, priority 2000, dated 2005)
Where a name gives a salt, the structure may show the parent alone.

What was measured:
[1] = target: T1, αVβ6 (HT-29 human colon carcinoma cells) (Homo sapiens, UniProt P06756+P18564); test: HT-29 cell adhesion assay (adhesion to immobilized LAP); type: cell-based; conditions: selectivity ratio: IC50 αVβ6 (HT-29) over IC50 β3
T1 construct: endogenous in cells; host or cells: HT-29 human colon carcinoma cells
Procedure: To evaluate compound potency for membrane-bound αVβ6 an additional cell-based adhesion assay was established using the HT-29 human colon carcinoma cell line. High surface expression of αVβ6 on HT-29 cells was confirmed by flow cytometry. Conditions were established in which cell adhesion to immobilized human latency associated peptide (LAP) was mediated by the αVβ6, as determined by a panel of integrin-specific, neutralizing monoclonal antibodies. Briefly, cells were incubated with inhibitor in the presence of 200 uM Mn^2+, allowed to adhere to immobilized LAP, washed, and adherent cells are detected by quantifying endogenous alkaline phosphatase using para-nitrophenyl phosphate. An 8-point dose-response curve using either 10-fold or 3-fold dilutions of compound was evaluated by fitting a four-parameter logistic, nonlinear model (using SAS). The compounds evaluated were relatively ineffective at inhibition of αVβ6-mediated cell adhesion. The selective antagonism of the αVβ3 integrin is viewed as desirable in this class of compounds, as αVβ6 may also play a role in normal physiological processes of tissue repair and cellular turnover that routinely occur in the skin and pulmonary tissues.

[2] = target: T2, αVβ3 integrin (293-β3 cells) (Homo sapiens, UniProt P05106+P06756); test: 293-β3 cell adhesion assay (adhesion to immobilized vitronectin); type: cell-based; conditions: 200 uM Mn2+, read-out: 293-β3 (IC50 <10 μM)
T2 construct: expressed in transfected cells; host or cells: 293 human embryonic kidney cells (293-β3)
Description: While the β3 subunit of αVβ3 is only known to complex with αV or αIIb, the αV subunit complexes with multiple β subunits. The three αV integrins most homologous with αVβ3 are αVβ1, αVβ5 and αVβ6, with 43%, 56% and 47% amino acid identity in the β subunits, respectively. To evaluate the selectivity of compounds between the integrins αVβ3 and αVβ6, cell-based assays were established using the 293 human embryonic kidney cell line. 293 cells express αVβ1, but little to no detectable αVβ3 or αVβ6. cDNAs for β3 and β6 were transfected separately into 293 cells to generate 293-β3 and 293-β6 cells, respectively. High surface expression of αVβ3 and αVβ6 was confirmed by flow cytometry. Conditions were established for each cell line in which cell adhesion to immobilized human vitronectin was mediated by the appropriate integrin, as determined by a panel of integrin-specific, neutralizing monoclonal antibodies. Briefly, cells were incubated with inhibitor in the presence of 200 uM Mn^2+, allowed to adhere to immobilized vitronectin, washed, and adherent cells are detected endogenous alkaline phosphatase and para-nitrophenyl phosphate. An 8-point dose-response curve using either 10-fold or 3-fold dilutions of compound was evaluated by fitting a four-parameter logistic, nonlinear model (using SAS).

[3] = target: T3, Human fibrinogen receptor (IIb/IIIa) (Homo sapiens, UniProt P05106+P08514); test: Purified IIb/IIIa receptor assay (solid phase receptor assay, SPRA); type: binding; conditions: selectivity ratio: IC50 αIIbβ3 (solid phase receptor assay) over IC50 β3
T3 construct: Human fibrinogen receptor (IIb/IIIa) was purified from outdated platelets; from tissue; host or cells: outdated human platelets
Description: Human fibrinogen receptor (IIb/IIIa) was purified from outdated platelets. (Pytela, R., Pierschbacher, M. D., Argraves, S., Suzuki, S., and Rouslahti, E. “Arginine-Glycine-Aspartic acid adhesion receptors”, Methods in Enzymology 144(1987):475-489.) Human vitronectin was purified from fresh frozen plasma as described in Yatohgo, T., Izumi, M., Kashiwagi, H., and Hayashi, M., “Novel purification of vitronectin from human plasma by heparin affinity chromatography,” Cell Structure and Function 13(1988):281-292. Biotinylated human vitronectin was prepared by coupling NHS-biotin from Pierce Chemical Company (Rockford, IL) to purified vitronectin as previously described. (Charo, I. F., Nannizzi, L., Phillips, D. R., Hsu, M. A., Scarborough, R. M., “Inhibition of fibrinogen binding to GP IIb/IIIa by a GP IIIa peptide”, J. Biol. Chem. 266(3)(1991): 1415-1421.) Assay buffer, OPD substrate tablets, and RIA grade BSA were obtained from Sigma (St. Louis, Mo.). Anti-biotin antibody was obtained from Sigma (St. Louis, Mo.). Nalge Nunc-Immuno microtiter plates were obtained from (Rochester, N.Y.). ADP reagent was obtained from Sigma (St. Louis, Mo.).
This assay is essentially the same reported in Niiya, K., Hodson, E., Bader, R., Byers-Ward, V. Koziol, J. A., Plow, E. F. and Ruggeri, Z. M., “Increased surface expression of the membrane glycoprotein IIb/IIIa complex induced by platelet activation: Relationships to the binding of fibrinogen and platelet aggregation”, Blood 70(1987):475-483. The purified human fibrinogen receptor (IIb/IIIa) was diluted from stock solutions to 1.0 μg/mL in Tris-buffered saline containing 1.0 mM Ca^++, Mg^++, and Mn^++, pH 7.4 (TBS^+++). The diluted receptor was immediately transferred to Nalge Nunc-Immuno microtiter plates at 100 μL/well (100 ng receptor/well). The plates were sealed and incubated overnight at 4° C. to allow the receptors to bind to the wells. All remaining steps were at room temperature. The assay plates were emptied and 200 μL of 1% RIA grade BSA in TBS^+++ (TBS^+++/BSA) were added to block exposed plastic surfaces. Following a 2 hour incubation, the assay plates were washed with TBS^+++ using a 96 well plate washer. Logarithmic serial dilution of the test compound and controls were made starting at a stock concentration of […] and using 2 nM biotinylated vitronectin in TBS^+++/BSA as the diluent. This premixing of labeled ligand with test (or control) ligand, and subsequent transfer of 50 μL aliquots to the assay plate was carried out with a CETUS Propette robot; the final concentration of the labeled ligand was 1 nM and the highest concentration of test compound was 1.0×10^−4 M. The competition occurred for two hours after which all wells were washed with a plate washer as before. Affinity purified horseradish peroxidase labeled goat anti-biotin antibody was diluted 1:2000 in TBS^+++/BSA and 125 μL were added to each well. After 45 minutes, the plates were washed and incubated with […] substrate in 100 mM/L citrate buffer, pH 5.0. The plate was read with a microtiter plate reader at a wavelength of 450 nm and when the maximum-binding control wells reached an absorbance of about 1.0, the final A450 were recorded for analysis. The data were analyzed using a macro written for use with the EXCELJ spreadsheet program. The mean, standard deviation, and %CV were determined for duplicate concentrations. The mean A450 values were normalized to the mean of four maximum-binding controls (no competitor added)(B-MAX). The normalized values were subjected to a four parameter curve fit algorithm, [Robard et al., Int.

T1 sequence (P06756 31-889 limits assumed): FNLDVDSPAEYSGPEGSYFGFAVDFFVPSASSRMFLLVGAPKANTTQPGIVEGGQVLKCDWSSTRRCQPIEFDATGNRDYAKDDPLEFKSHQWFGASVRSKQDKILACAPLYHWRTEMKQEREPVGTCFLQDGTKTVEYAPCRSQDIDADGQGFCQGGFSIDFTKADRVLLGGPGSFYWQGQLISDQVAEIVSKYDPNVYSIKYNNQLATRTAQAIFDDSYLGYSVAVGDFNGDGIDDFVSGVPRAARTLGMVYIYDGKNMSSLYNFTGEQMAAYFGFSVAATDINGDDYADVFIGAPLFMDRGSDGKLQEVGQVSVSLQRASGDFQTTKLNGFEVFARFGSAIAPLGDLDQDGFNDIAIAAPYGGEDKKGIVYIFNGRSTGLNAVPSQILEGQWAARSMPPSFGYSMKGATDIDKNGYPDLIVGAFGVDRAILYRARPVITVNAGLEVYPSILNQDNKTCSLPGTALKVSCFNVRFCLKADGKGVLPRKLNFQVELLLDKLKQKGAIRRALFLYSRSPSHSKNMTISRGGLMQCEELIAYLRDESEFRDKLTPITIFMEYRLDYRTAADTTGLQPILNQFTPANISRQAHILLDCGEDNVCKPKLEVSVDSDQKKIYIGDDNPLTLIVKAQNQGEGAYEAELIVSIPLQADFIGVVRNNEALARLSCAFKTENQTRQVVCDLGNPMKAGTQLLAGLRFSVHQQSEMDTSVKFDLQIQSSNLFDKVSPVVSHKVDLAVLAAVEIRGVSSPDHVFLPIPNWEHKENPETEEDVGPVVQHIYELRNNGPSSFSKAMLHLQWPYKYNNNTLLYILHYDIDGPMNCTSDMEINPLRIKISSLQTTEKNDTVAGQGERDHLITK
T1 sequence (P06756 891-1048 partner limits assumed): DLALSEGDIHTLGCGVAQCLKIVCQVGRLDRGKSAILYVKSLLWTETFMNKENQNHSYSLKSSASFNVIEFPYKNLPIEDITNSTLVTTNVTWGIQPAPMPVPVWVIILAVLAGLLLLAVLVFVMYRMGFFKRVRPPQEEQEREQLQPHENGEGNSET
T1 sequence (P18564 22-788): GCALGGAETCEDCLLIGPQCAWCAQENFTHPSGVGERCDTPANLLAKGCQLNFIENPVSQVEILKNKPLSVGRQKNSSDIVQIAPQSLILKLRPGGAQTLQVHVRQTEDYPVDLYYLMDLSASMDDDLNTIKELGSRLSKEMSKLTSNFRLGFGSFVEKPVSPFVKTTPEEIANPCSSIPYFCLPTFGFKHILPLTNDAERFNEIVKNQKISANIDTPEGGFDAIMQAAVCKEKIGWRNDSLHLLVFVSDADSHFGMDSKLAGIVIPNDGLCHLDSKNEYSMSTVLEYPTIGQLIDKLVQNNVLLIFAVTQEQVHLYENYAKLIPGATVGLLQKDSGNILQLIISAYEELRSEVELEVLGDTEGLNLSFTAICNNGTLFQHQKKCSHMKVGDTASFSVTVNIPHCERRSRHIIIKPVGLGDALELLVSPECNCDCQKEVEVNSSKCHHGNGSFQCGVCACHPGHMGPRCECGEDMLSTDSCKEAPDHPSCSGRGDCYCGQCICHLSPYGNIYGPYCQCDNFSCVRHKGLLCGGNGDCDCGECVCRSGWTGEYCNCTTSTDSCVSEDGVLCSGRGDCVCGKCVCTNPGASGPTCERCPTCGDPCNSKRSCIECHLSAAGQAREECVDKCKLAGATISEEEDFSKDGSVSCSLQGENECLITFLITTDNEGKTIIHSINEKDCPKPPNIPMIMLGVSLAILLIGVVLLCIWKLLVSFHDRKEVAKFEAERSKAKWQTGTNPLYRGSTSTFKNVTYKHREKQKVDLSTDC
T2 sequence (P06756 31-889 limits assumed): as the sequence (P06756 31-889 limits assumed) above
T2 sequence (P06756 891-1048 partner limits assumed): as the sequence (P06756 891-1048 partner limits assumed) above
T2 sequence (P05106 27-788): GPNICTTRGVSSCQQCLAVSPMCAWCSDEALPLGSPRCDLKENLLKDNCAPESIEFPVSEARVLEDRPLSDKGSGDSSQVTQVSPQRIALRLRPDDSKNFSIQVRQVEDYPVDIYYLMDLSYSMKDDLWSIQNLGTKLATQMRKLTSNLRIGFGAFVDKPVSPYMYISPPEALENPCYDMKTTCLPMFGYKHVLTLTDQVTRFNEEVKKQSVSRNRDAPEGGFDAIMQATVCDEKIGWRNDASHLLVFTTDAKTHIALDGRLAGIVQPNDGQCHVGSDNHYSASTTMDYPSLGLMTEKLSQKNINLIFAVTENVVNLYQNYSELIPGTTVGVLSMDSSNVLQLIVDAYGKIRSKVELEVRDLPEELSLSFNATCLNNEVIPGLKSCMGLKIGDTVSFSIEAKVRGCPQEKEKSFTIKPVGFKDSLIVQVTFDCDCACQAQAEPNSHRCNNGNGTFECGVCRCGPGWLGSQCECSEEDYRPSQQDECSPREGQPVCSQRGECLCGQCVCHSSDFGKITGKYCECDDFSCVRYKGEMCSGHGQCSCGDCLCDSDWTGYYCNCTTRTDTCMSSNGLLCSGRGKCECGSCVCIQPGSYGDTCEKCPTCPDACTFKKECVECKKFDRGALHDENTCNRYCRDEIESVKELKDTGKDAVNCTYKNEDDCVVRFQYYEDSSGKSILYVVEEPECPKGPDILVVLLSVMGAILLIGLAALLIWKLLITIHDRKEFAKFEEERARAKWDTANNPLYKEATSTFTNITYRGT
T3 sequence (P08514 32-887 limits assumed): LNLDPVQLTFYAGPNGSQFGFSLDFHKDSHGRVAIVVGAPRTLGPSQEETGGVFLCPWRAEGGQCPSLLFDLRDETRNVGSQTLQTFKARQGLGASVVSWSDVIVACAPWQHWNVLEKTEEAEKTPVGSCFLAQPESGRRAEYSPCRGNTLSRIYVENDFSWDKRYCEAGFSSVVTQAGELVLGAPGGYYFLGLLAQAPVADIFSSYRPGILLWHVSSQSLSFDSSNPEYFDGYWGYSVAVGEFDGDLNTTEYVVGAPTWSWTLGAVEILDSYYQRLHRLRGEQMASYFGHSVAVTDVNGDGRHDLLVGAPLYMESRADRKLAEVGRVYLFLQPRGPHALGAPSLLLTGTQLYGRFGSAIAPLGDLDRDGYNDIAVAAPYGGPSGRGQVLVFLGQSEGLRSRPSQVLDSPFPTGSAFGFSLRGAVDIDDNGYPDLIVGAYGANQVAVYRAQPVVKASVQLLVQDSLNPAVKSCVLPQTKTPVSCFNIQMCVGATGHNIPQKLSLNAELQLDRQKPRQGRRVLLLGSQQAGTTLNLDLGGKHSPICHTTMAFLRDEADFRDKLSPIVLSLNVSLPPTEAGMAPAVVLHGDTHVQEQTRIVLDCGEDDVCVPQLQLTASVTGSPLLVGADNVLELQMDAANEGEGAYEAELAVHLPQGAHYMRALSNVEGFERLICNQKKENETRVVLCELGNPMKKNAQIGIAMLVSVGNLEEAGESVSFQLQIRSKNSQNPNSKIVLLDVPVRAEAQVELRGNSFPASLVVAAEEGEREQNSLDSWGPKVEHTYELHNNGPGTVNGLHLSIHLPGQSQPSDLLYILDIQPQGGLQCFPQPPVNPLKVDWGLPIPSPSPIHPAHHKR
T3 sequence (P08514 891-1039 partner limits assumed): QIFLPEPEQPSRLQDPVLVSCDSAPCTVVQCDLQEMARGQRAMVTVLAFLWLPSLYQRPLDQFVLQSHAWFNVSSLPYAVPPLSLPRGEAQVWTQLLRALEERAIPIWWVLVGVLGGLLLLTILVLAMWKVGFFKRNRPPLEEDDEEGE
T3 sequence (P05106 27-788): as the sequence (P05106 27-788) above

SMILES | HT-29 β-6 Selectivity* (β6/β3) [1] | IC50 [2] [µM] | SPRA AIIbB3 Selectivity* IIbIIIa/β3 [3]
O=C(O)C(F)(F)F.O=C(O)CC(Cc1nc(CCCCNc2ccccn2)no1)c1ccc(F)cc1 (stereo not drawn) [Example 27, 3-(4-fluorophenyl)-4-{3-[4-(pyridin-2-ylamino)butyl]-1,2,4-oxadiazol-5-yl}butanoic acid] | +++ (Selectivity Ratio >100 +++) | < 10 | +++ (Selectivity Ratio >100 +++)
O=C(O)C(F)(F)F.O=C(O)CC(Cc1nc(CCCc2ccc3c(n2)NCCC3)no1)c1cccc(C(F)(F)F)c1 (stereo not drawn) [Example 28, 4-{3-[3-(5,6,7,8-tetrahydro-1,8-naphthyridin-2-yl)propyl]-1,2,4-oxadiazol-5-yl}-3-[3-(trifluoromethyl)phenyl]butanoic acid] | +++ (Selectivity Ratio >100 +++) | < 10 | +++ (Selectivity Ratio >100 +++)
O=C(O)C(F)(F)F.O=C(O)CC(Cc1nc(CCCCNc2ccccn2)no1)c1cccc(C(F)(F)F)c1 (stereo not drawn) [Example 29, 4-{3-[4-(pyridin-2-ylamino)butyl]-1,2,4-oxadiazol-5-yl}-3-[3-(trifluoromethyl)-phenyl]butanoic acid] | +++ (Selectivity Ratio >100 +++) | < 10 | +++ (Selectivity Ratio >100 +++)
O=C(O)C(F)(F)F.O=C(O)CC(Cc1nc(CCCc2ccc3c(n2)NCCC3)no1)c1cccnc1 (stereo not drawn) [Example 32, 3-pyridin-3-yl-4-{3-[3-(5,6,7,8-tetrahydro-1,8-naphthyridin-2-yl)propyl]-1,2,4-oxadiazol-5-yl}butanoic acid] | +++ (Selectivity Ratio >100 +++) | < 10 | +++ (Selectivity Ratio >100 +++)
O=C(O)CC(Cc1nc(CCCc2ccc3c(n2)NCCC3)no1)c1ccccc1 (stereo not drawn) [Example 34, 3-phenyl-4-{3-[3-(5,6,7,8-tetrahydro-1,8-naphthyridin-2-yl)propyl]-1,2,4-oxadiazol-5-yl}butanoic acid trifluoroacetate] | +++ (Selectivity Ratio >100 +++) | < 10 | +++ (Selectivity Ratio >100 +++)
O=C(O)CC(Cc1nc(CCCCNc2ccccn2)no1)c1ccccc1 (stereo not drawn) [Example 35, 3-phenyl-4-{3-[4-(pyridin-2-ylamino)butyl]-1,2,4-oxadiazol-5-yl}butanoic acid] | +++ (Selectivity Ratio >100 +++) | < 10 | ++ (Selectivity Ratio of 10-100 ++)
CCC(C)(CC(=O)O)Cc1nc(CCCCNc2ccccn2)no1 (stereo not drawn) [Example 36, 3-methyl-3-({3-[4-(pyridin-2-ylamino)butyl]-1,2,4-oxadiazol-5-yl}methyl)pentanoic acid] | +++ (Selectivity Ratio >100 +++) | < 10 | +++ (Selectivity Ratio >100 +++)
O=C(O)CC1(Cc2nc(CCCCNc3ccccn3)no2)CCCCC1 [Example 37, [1-({3-[4-(pyridin-2-ylamino)butyl]-1,2,4-oxadiazol-5-yl}methyl)cyclohexyl]-acetic acid] | ++ (Selectivity Ratio of 10-100 ++) | < 10 | ++ (Selectivity Ratio of 10-100 ++)
CCCC(C)(CC(=O)O)Cc1nc(CCCCNc2ccccn2)no1 (stereo not drawn) [Example 38, 3-methyl-3-({3-[4-(pyridin-2-ylamino)butyl]-1,2,4-oxadiazol-5-yl}methyl)-hexanoic acid] | +++ (Selectivity Ratio >100 +++) | < 10 | +++ (Selectivity Ratio >100 +++)
CC(C)C(C)(CC(=O)O)Cc1nc(CCCCNc2ccccn2)no1 (stereo not drawn) [Example 39, 3,4-dimethyl-3-({3-[4-(pyridin-2-ylamino)butyl]-1,2,4-oxadiazol-5-yl}methyl)-pentanoic acid] | ++ (Selectivity Ratio of 10-100 ++) | < 10 | ++ (Selectivity Ratio of 10-100 ++)
CCC(CC)(CC(=O)O)Cc1nc(CCCCNc2ccccn2)no1 [Example 40, 3-ethyl-3-({3-[4-(pyridin-2-ylamino)butyl]-1,2,4-oxadiazol-5-yl}methyl)-pentanoic acid] | ++ (Selectivity Ratio of 10-100 ++) | < 10 | +++ (Selectivity Ratio >100 +++)
O=C(O)CCCc1nc(CCCCNc2ccccn2)no1 [Example 41, 4-{3-[4-(pyridin-2-ylamino)butyl]-1,2,4-oxadiazol-5-yl}butanoic acid] | +++ (Selectivity Ratio >100 +++) | < 10 | ++ (Selectivity Ratio of 10-100 ++)
CC(CC(=O)O)(Cc1nc(CCCCNc2ccccn2)no1)c1ccccc1 (stereo not drawn) [Example 42, 3-methyl-3-phenyl-4-{3-[4-(pyridin-2-ylamino)butyl]-1,2,4-oxadiazol-5-yl}-butanoic acid] | +++ (Selectivity Ratio >100 +++) | < 10 | +++ (Selectivity Ratio >100 +++)
CCC(C)(CC(=O)O)Cc1nc(CCCc2ccc3c(n2)NCCC3)no1 (stereo not drawn) [Example 43, 3-Methyl-3-{3-[3-(5,6,7,8-tetrahydro-[1,8]naphthyridin-2-yl)-propyl]-[1,2,4]oxadiazol-5-ylmethyl}-pentanoic acid] | +++ (Selectivity Ratio >100 +++) | < 10 | +++ (Selectivity Ratio >100 +++)
